Experimental data as given in ChEMBL document CHEMBL4680293, “Tubulin inhibitory activity of a novel colchicine-binding compounds based on a dinaphthospiropyranran scaffold” (Bioorg Med Chem, 2021).
Active and inactive are the calls of the source. The rule behind the calls is not given here.

target: Tubulin (Homo sapiens) (UniProt P68371+Q9H4B7+P0DPH7+P68366+Q13509+Q71U36+P04350+Q3ZCM7+P07437+P68363+Q9BQE3+Q6PEY2+Q13885+Q9BVA1+Q9BUF5); assay: Inhibition of tubulin (unknown origin) assessed as inhibition of tubulin polymerization at 10 uM measured for 50 mins by fluorescence based analysis; type: protein-complex assay

inhibition, active:
CC[C@]1(O)C[C@@H]2CN(CCc3c([nH]c4ccccc34)[C@@](C(=O)OC)(c3cc4c(cc3OC)N(C)[C@H]3[C@@](O)(C(=O)OC)[C@H](OC(C)=O)[C@]5(CC)C=CCN6CC[C@]43[C@@H]65)C2)C1
C1=C2CCC3=Cc4c(ccc5ccccc45)OC23Oc2ccc3ccccc3c21
C1=C2COCC3=Cc4c(ccc5ccccc45)OC23Oc2ccc3ccccc3c21
